Patent EP4621409A1, “NOVEL ANTIVIRAL PEPTIDE” (Daehannupharm Co., Ltd., priority 2022, dated 2024)
Read-outs that look alike come from different tables or passages of the source. No end group written: not given here.

Experiments:
dengue virus = details: for IC50: dengue virus incubated with peptide 37°C 1 hour, Vero cells, 2 days, triplicate
Procedure: The inoculated cells were cultured overnight.
The SP-049 peptide was prepared such that the maximum concentration was 125 nM and the minimum concentration was 0.98 nM (concentrations: 125 nM; 62.5 nM; 31.25 nM; 15.62 nM; 7.81 nM; 3.91 nM; 1.95 nM; and 0.98 nM).
The present inventors calculated the inhibition rate (% inhibition) of each well based on the formula of the standard curve by converting the average Ct value of wells infected with dengue virus without peptide treatment in the same plate into an infection rate of 100%, and using this to create a standard curve. Each value was obtained through three repeated experiments (in triplicate), and IC50 values were derived using GraphPad Prism 5 software.

HCV = details: Table 1 in Cheng, Guofeng, et al.; cited from earlier work

Sequence	IC50 (SARS-CoV-2 virus)	% Inhibition (dengue virus; Conc. 7.81 nM)	% Inhibition (dengue virus; Conc. 15.63 nM)	% Inhibition (dengue virus; Conc. 31.25 nM)	% Inhibition (dengue virus; Conc. 62.50 nM)	% Inhibition (dengue virus; Conc. 125.00 nM)	IC50 (dengue virus)	other results
DFWSKLVYFFAEIIRFLS [SP-143, DFWSKLVYFFAEIIRFLS]	19.5 µM	49.26%	53.07%	79.28%	94.07%	99.42%	0.0161 µM	% Inhibition (dengue virus; Conc. 0.98 nM): 59.95%; % Inhibition (dengue virus; Conc. 1.95 nM): -28.80%; % Inhibition (dengue virus; Conc. 3.91 nM): 42.98%
DKIVLFILSILEKIYNLL [SP-171, DKIVLFILSILEKIYNLL]	18.7 µM	–	–	–	–	–	–	–
DVTRLLELILDVLAYIIS [SP-151, DVTRLLELILDVLAYIIS]	5 µM	–	–	–	–	–	–	–
DWLRIIWDWVCSVVSDFK [SEQ ID NO: 301]	–	–	–	–	–	–	–	antiviral activity compared among C5A analogs derived from HCV 1a, 1b, 2a, 3a, 4a, 5a and 6a (HCV): higher antiviral activity
ESLKNFWESLWKFFTHFF [SP-001, ESLKNFWESLWKFFTHFF]	–	-0.47%	45.60%	57.96%	78.78%	82.51%	0.0226 µM	% Inhibition (dengue virus; Conc. 250.00 nM): 100.00%; % Inhibition (dengue virus; Conc. 500.00 nM): 100.00%; % Inhibition (dengue virus; Conc. 1000.00 nM): 100.00%
FSFWVWLDNIIDLVKKYI [SP-114, FSFWVWLDNIIDLVKKYI]	19.5 µM	–	–	–	–	–	–	–
FTFWTWLEAILDLIKKHI [SP-116, FTFWTWLEAILDLIKKHI]	4.1 µM	–	–	–	–	–	–	–
FTNFHRQLFCWIDKWIDL [SP-191, FTNFHRQLFCWIDKWIDL]	–	–	–	–	–	–	0.776 µM	% Inhibition (dengue virus; Conc. 39.06 nM): -20.14%; % Inhibition (dengue virus; Conc. 78.13 nM): -14.44%; % Inhibition (dengue virus; Conc. 156.25 nM): 5.32%; % Inhibition (dengue virus; Conc. 312.50 nM): 46.78%; % Inhibition (dengue virus; Conc. 625.00 nM): 29.53%; % Inhibition (dengue virus; Conc. 1250.00 nM): 64.10%; % Inhibition (dengue virus; Conc. 2500.00 nM): 98.50%; % Inhibition (dengue virus; Conc. 5000.00 nM): 99.99%
ILDFFVGFIDWLVRYLNK [SP-046, ILDFFVGFIDWLVRYLNK]	7.9 µM	15.33%	–	100.00%	100.00%	100.00%	0.0177 µM	% Inhibition (dengue virus; Conc. 0.98 nM): 3.30%; % Inhibition (dengue virus; Conc. 1.95 nM): 3.30%; % Inhibition (dengue virus; Conc. 3.91 nM): 5.60%; % Inhibition (dengue virus; Conc. 15.62 nM): 36.10%
ILVRWLSHFFEYLDRFYT [SP-221, ILVRWLSHFFEYLDRFYT]	19.5 µM	–	–	–	–	–	–	–
QSFLDIVWSIIDIFKEFC [SP-004, QSFLDIVWSIIDIFKEFC]	8.9 µM	-1.96%	6.56%	9.23%	22.45%	34.78%	0.207 µM	% Inhibition (dengue virus; Conc. 250.00 nM): 61.21%; % Inhibition (dengue virus; Conc. 500.00 nM): 99.95%; % Inhibition (dengue virus; Conc. 1000.00 nM): 100.00%
SFLDIVWSIIDIFKEFCK [SP-003, SFLDIVWSIIDIFKEFCK]	10.3 µM	-6.03%	38.56%	71.23%	63.98%	99.91%	0.022 µM	% Inhibition (dengue virus; Conc. 250.00 nM): 100.00%; % Inhibition (dengue virus; Conc. 500.00 nM): 100.00%; % Inhibition (dengue virus; Conc. 1000.00 nM): 100.00%
SWKEIVNLLYELLASLIR [SP-101, SWKEIVNLLYELLASLIR]	11.6 µM	-14.11%	20.94%	0.96%	23.20%	65.09%	0.1 µM	% Inhibition (dengue virus; Conc. 250.00 nM): 97.07%; % Inhibition (dengue virus; Conc. 500.00 nM): 100.00%; % Inhibition (dengue virus; Conc. 1000.00 nM): 100.00%
WDCVQDIWEYIFRTAMKI [SP-185, WDCVQDIWEYIFRTAMKI]	–	–	–	–	–	–	0.519 µM	% Inhibition (dengue virus; Conc. 39.06 nM): -7.43%; % Inhibition (dengue virus; Conc. 78.13 nM): 11.76%; % Inhibition (dengue virus; Conc. 156.25 nM): 36.60%; % Inhibition (dengue virus; Conc. 312.50 nM): 33.04%; % Inhibition (dengue virus; Conc. 625.00 nM): 51.77%; % Inhibition (dengue virus; Conc. 1250.00 nM): 89.53%; % Inhibition (dengue virus; Conc. 2500.00 nM): 100.00%; % Inhibition (dengue virus; Conc. 5000.00 nM): 100.00%
WSEILREFLNLISLIWSR [SP-110, WSEILREFLNLISLIWSR]	19.5 µM	–	–	–	–	–	–	–
YNLFDLLIYIWNKIFDDY [SP-049, YNLFDLLIYIWNKIFDDY]	1.8 µM	93.03%	100.00%	100.00%	100.00%	–	0.00385 µM	% Inhibition (dengue virus; Conc. 0.49 nM): 24.20%; % Inhibition (dengue virus; Conc. 0.98 nM): 20.16%; % Inhibition (dengue virus; Conc. 1.95 nM): 39.14%; % Inhibition (dengue virus; Conc. 3.91 nM): 45.30%
